According to patent publication US6372926B1, “17-side chain alkynyl-and 20-oxopregna-derivatives of vitamin D, methods for their production and pharmaceutical compositions thereof” (Research Institute for Medicine and Chemistry, priority 1997, dated 2002):

Columns and labels:
[1] = tested on: progesterone activity; experiment: anti-progesterone activity (applicant's finding); conditions: evidenced by antifertility activity, anti-progesterone assay and inhibition of growth of T47D and MCF-7 cell lines; no data given
[2] = target: T1, progesterone receptor (Homo sapiens, UniProt P06401); conditions: as reported by DeLuca and coworkers; cited from earlier work
T1 sequence (P06401 1-933): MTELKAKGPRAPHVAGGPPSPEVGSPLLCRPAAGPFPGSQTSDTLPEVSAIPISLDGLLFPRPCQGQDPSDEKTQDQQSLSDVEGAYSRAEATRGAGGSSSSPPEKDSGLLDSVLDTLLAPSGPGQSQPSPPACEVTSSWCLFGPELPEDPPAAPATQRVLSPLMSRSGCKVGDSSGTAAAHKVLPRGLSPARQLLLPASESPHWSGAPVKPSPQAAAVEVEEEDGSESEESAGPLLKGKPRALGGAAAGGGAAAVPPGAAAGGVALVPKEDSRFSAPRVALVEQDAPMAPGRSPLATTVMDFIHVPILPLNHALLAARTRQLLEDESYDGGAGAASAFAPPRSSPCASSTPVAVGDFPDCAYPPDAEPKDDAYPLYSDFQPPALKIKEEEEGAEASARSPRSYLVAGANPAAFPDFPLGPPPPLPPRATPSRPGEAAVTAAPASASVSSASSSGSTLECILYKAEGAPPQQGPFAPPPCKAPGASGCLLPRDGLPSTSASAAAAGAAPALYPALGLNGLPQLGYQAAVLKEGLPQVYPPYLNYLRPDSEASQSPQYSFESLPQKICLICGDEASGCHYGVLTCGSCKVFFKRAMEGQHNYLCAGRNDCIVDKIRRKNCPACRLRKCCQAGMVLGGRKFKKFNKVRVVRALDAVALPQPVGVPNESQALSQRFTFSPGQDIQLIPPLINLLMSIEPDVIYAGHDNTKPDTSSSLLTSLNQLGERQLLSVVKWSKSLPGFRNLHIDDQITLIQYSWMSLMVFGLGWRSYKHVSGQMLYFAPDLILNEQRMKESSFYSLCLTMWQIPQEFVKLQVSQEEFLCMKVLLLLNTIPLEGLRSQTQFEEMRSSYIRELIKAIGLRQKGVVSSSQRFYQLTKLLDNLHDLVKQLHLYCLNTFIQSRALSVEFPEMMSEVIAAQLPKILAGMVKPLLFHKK

[3] = target: T2, glutocorticoid receptor (Homo sapiens, UniProt P04150); conditions: in contrast to RU 486; literature report; cited from earlier work
T2 sequence (P04150 1-777): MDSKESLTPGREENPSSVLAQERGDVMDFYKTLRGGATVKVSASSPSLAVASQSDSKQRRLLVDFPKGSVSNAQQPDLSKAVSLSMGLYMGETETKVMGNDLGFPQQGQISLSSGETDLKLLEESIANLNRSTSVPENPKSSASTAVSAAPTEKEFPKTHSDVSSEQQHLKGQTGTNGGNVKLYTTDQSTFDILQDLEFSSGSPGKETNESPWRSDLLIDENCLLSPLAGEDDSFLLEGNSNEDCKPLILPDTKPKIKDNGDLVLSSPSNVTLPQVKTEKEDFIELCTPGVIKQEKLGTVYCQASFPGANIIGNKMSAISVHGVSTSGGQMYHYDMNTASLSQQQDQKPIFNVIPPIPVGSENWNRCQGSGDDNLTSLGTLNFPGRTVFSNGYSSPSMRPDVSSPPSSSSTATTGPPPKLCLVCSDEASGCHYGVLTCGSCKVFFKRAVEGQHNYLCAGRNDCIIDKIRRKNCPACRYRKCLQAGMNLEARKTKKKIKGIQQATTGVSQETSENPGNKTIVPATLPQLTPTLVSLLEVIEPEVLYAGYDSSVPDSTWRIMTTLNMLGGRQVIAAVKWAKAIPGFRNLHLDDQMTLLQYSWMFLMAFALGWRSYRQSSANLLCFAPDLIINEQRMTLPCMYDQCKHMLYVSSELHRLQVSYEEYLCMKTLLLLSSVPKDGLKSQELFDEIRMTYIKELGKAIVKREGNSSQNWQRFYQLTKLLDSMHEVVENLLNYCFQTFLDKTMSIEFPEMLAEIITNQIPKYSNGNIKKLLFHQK

[4] = tested on: human breast cancer cells (T47D); conditions: Endocrine Society 1994 Abstract No. 1744; cited from earlier work

C=C1C(=CC=C2CCCC3(C)C(C(C)=O)CCC23)CC(O)CC1O (stereo not drawn) [1α-Hydroxy-20-oxopregna-calciferol, 1α,3β-Dihydroxy-20-oxo-9,10-secopregna-5(Z),7,10(19)-triene]
antagonism of progesterone activity [1]: anti-progestational activity | ability to bind to the progesterone receptor [2]: not to have such binding effect

C=C1CC[C@H](O)C/C1=C/C=C1\CCC[C@@]2(C)[C@@H](C(C)=O)CC[C@H]12 [20-oxopregnacalciferol]
binding to the glucocorticoid receptor [3]: not to bind | suppression of in vitro growth of human breast cancer cells (T47D) [4]: suppress in vitro growth
